The nature of data set [1]: MDCK-II assay (cell monolayer assay). The following applies: dog. The format is in vitro ADME. As to the method: (§1) Further, with respect to the peptides synthesized in Examples 14, 15 and 17 and Comparative Examples 5,6 and 8, MDCK-II assay was conducted. For the MDCK-II assay, propranolol (CAS No: 318-98-9) was used as a positive control (“PC”) and Norfloxacin (CAS No: 70458-96-7) as a negative control (“NC”).
MDCK-II cells were seeded on Cell Culture Inserts (Falcon) at 5.04×10^4 cells/mL, and 5 days after seeding, cell monolayer assay (MDCK-II assay) was conducted. The peptide stock solution was prepared at 2 mM in DMSO solution, and diluted with HBSS containing 20 mM of HEPES (pH 7.5) to prepare a 2 μM peptide solution using as a solvent 0.1% DMSO/HBSS (+), as a donor solution. The acceptor solution was a 0.1% DMSO solution using as a solvent HBSS (+) containing 20 mM of HEPES (pH 7.5). […] The peptide concentration was analyzed by LC/MS. The experiment was conducted repeatedly three times. The permeability (Papp) was calculated in accordance with the following formula.
A: filter area (0.3 cm^2) VB: basolateral well volume (0.75 cm^3) t: incubation time (s) (2 hours=7200 s) C0: initial concentration in apical chamber (2 μM) CB (t): basolateral compound concentration at time t

A short description of data set [2]: PAMPA (Parallel Artificial Membrane Permeability Assay). Type of data set: in vitro ADME. The procedure:
as §1
Permeability of the peptides was evaluated by PAMPA. In the PAMPA, 300 μL of a 5% DMSO-containing PBS was added to the respective wells of an accepter plate (MultiScreen 96-well transport receiver plate, manufactured by Merck), and 150 μL of a peptide solution (20 μM) dissolved in 5% DMSO/PBS was added to the respective wells of a donor plate (MultiScreen-IP filter plate, 0.45 μm, manufactured by Merck). A dodecane solution of 1% lecithin (from soybean) was subjected to ultrasonic treatment for 30 minutes before use, and 5 μL of the solution was applied to the membrane support (PVDF) of the respective wells of the donor plate. The donor plate was placed on the acceptor plate, and the plates were left to stand in an incubator at 25° C. for 18 hours. The peptide concentration was determined by LC/MS. The experiment was conducted repeatedly three times. The permeability (Pe) was calculated in accordance with the following formulae.
A: filter area (0.3 cm^2) VD: volume of donor well (0.15 cm^3) VA: volume of acceptor well (0.3 cm^3) t: incubation time (s) (18 hours=64800 s) CD (t): compound concentration in donor well at time t CA (t): compound concentration in acceptor well at time t

Where [3] appears, read: MDCK-II monolayer, 2 μM peptide, apical side to basolateral side, 37° C., 5% CO2, 2 hours, repeated three times, read-out: Papp.
The mark [4] stands for this setting: peptide 20 μM in 5% DMSO/PBS, 1% lecithin in dodecane on PVDF, 25° C. for 18 hours, repeated three times, read-out: Pe.

Like-named read-outs stand apart in the source and are kept apart here. Peptide text beside a SMILES is read from it. * marks the point of attachment. NHBn = c1ccc(CN*)cc1

`CC(=O)N[C@@H](C)C(=O)N[C@@H](C)C(=O)NCc1ccccc1` [Comparative Example 5, Ac-L-Ala-L-Ala-NHBn, reference compound] (Ac-Ala-Ala-NHBn) yielded a Papp A→B at 2 h, 2 μM in data set [1] (MDCK) of 1.23 ×10⁻⁶ cm/s. In data set [2], `CC(=O)N[C@H](C(=O)N[C@@H](C)C(=O)N(C)C)C(C)C` [Comparative Example 7, Ac-L-Val-L-Ala-NMe2, reference compound] (Ac-Val-Ala-NMe2) came in with a Papp at 18 h, 20 μM of no more than 0.003 ×10⁻⁶ cm/s. With `CC(=O)NC(C(=O)N[C@@H](Cc1ccccc1)C(=O)NCC(C)C)C(F)(F)F` (stereo partly drawn) [Example 15, Ac-D,L-Ala (F3)-L-Phe-iBu], the Papp A→B at 2 h, 2 μM in data set [1] (setting [3]) is 9.86 ×10⁻⁶ cm/s. The Papp at 18 h, 20 μM in data set [2] (setting [4]) turned out to be 0.19 ×10⁻⁶ cm/s.

`CC(=O)N[C@H](C(=O)N[C@@H](Cc1ccccc1)C(=O)NCC(C)C)C(C)C` [Comparative Example 8, Ac-L-Val-L-Phe-iBu, reference compound] showed a Papp A→B at 2 h, 2 μM in data set [1] (MDCK) of 7.12 ×10⁻⁶ cm/s. In data set [2], this compound showed a Papp at 18 h, 20 μM of 0.07 ×10⁻⁶ cm/s. As for `CC(=O)NC(C(=O)N[C@@H](Cc1ccccc1)C(=O)NCC(C)C)C(C(F)(F)F)C(F)(F)F` (stereo partly drawn) [Example 17, Ac-D,L-Val (F6)-L-Phe-iBu], in data set [1] (setting [3]), the Papp A→B at 2 h, 2 μM was found to be 8.38 ×10⁻⁶ cm/s. Moreover, the Papp at 18 h, 20 μM in data set [2] (setting [4]) came out at 1.57 ×10⁻⁶ cm/s. Consider `CC(=O)NC(C(=O)N[C@@H](C)C(=O)N(C)C)C(C(F)(F)F)C(F)(F)F` (stereo partly drawn) [Example 16, Ac-D,L-Val (F6)-L-Ala-NMe2], for which, in data set [2] (setting [4]), the Papp at 18 h, 20 μM came out at 0.04 ×10⁻⁶ cm/s. In the case of `CC(=O)NC(C(=O)N[C@@H](C)C(=O)NCc1ccccc1)C(F)(F)F` (stereo partly drawn) [Example 14, Ac-D,L-Ala (F3)-L-Ala-NHBn], the Papp A→B at 2 h, 2 μM in data set [1] (setting [3]) stood at 3.26 ×10⁻⁶ cm/s.

The values above are taken from patent US20220119440A1, “PEPTIDE AND METHOD FOR MANUFACTURING SAME” (AGC Inc., priority 2019, published 2022).
